Measured values as given in patent US11021506B2, “Thiosaccharide mucolytic agents” (The Regents of the University of California, priority 2013, dated 2021).
“Also recorded” adds a separate entry of the source.

Assays:
[1] = Rheometry: disulfide dimer study, elastic modulus (G′) of sputum (source not stated); set-up: species or system human; settings: 10 mM (FIG. 2)
Procedure: (§1) A rheometer was employed to determine the effect of the compounds disclosed herein on the elastic modulus (G′) of sputum sample from human subjects. The terms “elastic modulus,” “G′,” and the like refer to the elastic modulus as known in the art. Inhalation of 3% saline facilitates mucus expectoration (“induced sputum”) in human subjects, including in healthy subjects without lung disease. A typical sputum induction yields 3-5 mL of sputum, and induced sputum samples can be pooled from several donors in order to provide as much as 20 mL with for any given set of experiments. The rheometer can use 1 mL per assay. Rheological measurements can be made, e.g., with a AR2000 cone-and-plate rheometer (TA Instruments), as known in the art.
(§2) Patients with cystic fibrosis (CF) are able to spontaneously expectorate sputum samples. […] We typically add the test compound to induced sputum at a 10% v/v, and we calculate effect of the test compound by measuring G′ every 2 minutes for periods up to 20 minutes. Because oxidation can cause baseline drift, we keep the experiment under nitrogen to improve signal to noise ratios. We custom modified a cone and plate rheometer to permit this kind of control in our rheometry experiments. Another protocol element that we use to optimize signal to noise is the addition of protease inhibitors to CF sputum to inhibit protease digestion of mucin. […]

[2] = Rheometry: elastic modulus (G′) of pooled induced sputum from healthy subjects; set-up: species or system human; settings: for effect on elastic modulus G′ (in words): 1 mM (FIG. 1)
Procedure: A rheometer was employed to determine the effect of the compounds disclosed herein on the elastic modulus (G′) of sputum sample from human subjects. The terms “elastic modulus,” “G′,” and the like refer to the elastic modulus as known in the art. Inhalation of 3% saline facilitates mucus expectoration (“induced sputum”) in human subjects, including in healthy subjects without lung disease. A typical sputum induction yields 3-5 mL of sputum, and induced sputum samples can be pooled from several donors in order to provide as much as 20 mL with for any given set of experiments. The rheometer can use 1 mL per assay. Rheological measurements can be made, e.g., with a AR2000 cone-and-plate rheometer (TA Instruments), as known in the art. Patients with cystic fibrosis (CF) are able to spontaneously expectorate sputum samples. […] We typically add the test compound to induced sputum at a 10% v/v, and we calculate effect of the test compound by measuring G′ every 2 minutes for periods up to 20 minutes. Because oxidation can cause baseline drift, we keep the experiment under nitrogen to improve signal to noise ratios. We custom modified a cone and plate rheometer to permit this kind of control in our rheometry experiments. Another protocol element that we use to optimize signal to noise is the addition of protease inhibitors to CF sputum to inhibit protease digestion of mucin. As depicted in FIG. 1, the elastic modulus (G′) of pooled induced sputum from five healthy subjects was determined as a function of time in the presence of 1 mM PBS (phosphate buffered saline), NAC (N-acetylcysteine), Cmpd 1, Cmpd 29, Glc-NAc, and Gal-NAc.

[3] = Rheometry: elastic modulus (G′) of sputum from cystic fibrosis (CF) patients; set-up: species or system human; settings: for effect on G′ of CF sputum: sputum pooled from three CF patients (FIG. 3); for mucolytic effect: change in elastic modulus G′ (%-change from baseline): twelve-minute test period (FIG. 5A); for mucolytic effect on elastic modulus G′ over 12-minute test period: CF sputum n=5 donors (FIG. 7A); for mucolysis: onset and endpoint (12-minutes), change in G′: single sputum sample from a CF patient (FIG. 6)
Procedure: as §1, §2
A series of time courses of the change in baseline G′ (%-change from baseline) of sputum samples at 10 mM concentration of MDG and Cmpds 1-5 is depicted in FIG. 6. Each datum in the figure was obtained from a single sputum sample from a patient with cystic fibrosis. […] Moreover, the length of the chain leading to the thiol is important; compare Cmpd 2 (C5 alkylene) vs. Cmpd 3 (C2 alkylene).
A time course of the change in baseline G′ (%-change from baseline) at 10 mM concentration of thiosaccharide is depicted in FIG. 7A. The drugs compared include an unmodified sugar (MDG), Glutathione (GSH, a natural endogenous reducing agent), N-acetyl cysteine (NAC), Cmpd 1 and Cmpd 2.

[4] = Oxidation-reduction potential (ORP) measurement; format: physicochemical; settings: solutions (1 mM); for Reducing capacity (ORP): ORP probe; for reducing properties (in words): compared to parent sugar (PS) control
Procedure: An INLAB® Redox Micro ORP probe (Mettler Toledo) was employed, which utilizes a small platinum ring indicator electrode and a 3M KCL reference electrolyte. ORP values were determined for thiosaccharides, NAC and glutathione.

[5] = cited from earlier work
[6] = 61 mM, CF sputum n=5 donors, 12 minutes (FIG. 5C)

Structure (SMILES) | mucolytic effect: change in elastic modulus G′ (%-change from baseline) ([3]; 61 mM, CF sputum n=5 donors) | Reducing capacity (ORP) [4] | reducing properties (in words) [4] | mucolytic effect on elastic modulus G′ over 12-minute test period ([3]; 10 mM) | mucolysis: onset and endpoint (12-minutes), change in G′ ([3]; 10 mM) | also measured
CO[C@H]1OC(CS)[C@H](O)C(O)C1O (stereo partly drawn) [Cmpd 1, methyl 6-deoxy-6-thio-α-D-galactopyranoside] | decrease the elastic modulus (G′) | 99 mV | relatively strong reducing capabilities |  |  | efficacy in reducing elastic modulus G′ (comparison) [1]: more effective in reducing elastic modulus G′ than either the disulfide dimer of Cmpd 1 or Cmpd 6; decrease in elastic modulus G′ ([2]; 1 mM, during the time course of the experiment (FIG. 1)): ~30%; effect on G′ of CF sputum ([3]; 10 mM): larger than the effect in healthy induced sputum; onset of action ([3]; 61 mM, CF sputum): significantly faster onset of action relative to either parent sugar MDG or NAC; average mucolytic effect at two minutes ([3]; 61 mM, CF sputum n=5 donors, 2 minutes (FIG. 5B)): significantly larger than observed for NAC; also recorded: much larger mucolytic effects than NAC; mucolytic effect at 12 minutes [3, 6]: similar; decrease in elastic modulus G′ of individual sputum samples from CF patients ([3]; individual samples from three CF patients (FIGS. 4A-4D)): ca. 50%
CO[C@H]1OC(CO)[C@H](S)[C@H](O)C1O (stereo partly drawn) [Cmpd 29] |  |  |  |  |  | effect on elastic modulus G′ (in words) [2]: approximately half of the decrease in G′ observed with Cmpd 1
CO[C@H]1O[C@H](CO)[C@H](O)[C@H](O)[C@H]1O [MDG, methyl α-D-galactopyranoside, reference compound] | no mucolytic effect | 176 mV |  | ineffective as mucolytics |  | effect on G′ of CF sputum ([3]; 10 mM): ineffective in decreasing G′ of CF sputum
CC(=O)N[C@@H](CS)C(=O)O [NAC, N-Acetylcysteine, reference compound] | decrease the elastic modulus (G′) | 121 mV | did not have strong reducing properties | no better than control solutions |  | effect on elastic modulus G′ (in words) [2]: not effective in decreasing G′; mucolytic effect at 12 minutes [3, 6]: similar; pKa [5]: 2.2
OCC1O[C@@H](OCCCCCS)C(O)[C@@H](O)[C@@H]1O (stereo partly drawn) [Cmpd 5] |  |  |  |  | a galactose moiety (i.e., Cmpd 2) affords a better mucolytic than mannose (Cmpd 5) or glucose (Cmpd 4) | 
OCC1O[C@@H](OCCCCCS)C(O)[C@@H](O)[C@H]1O (stereo partly drawn) [Cmpd 2, 5-Thiolpentyl β-D-galactopyranoside] |  | −15 mV | very strong reducing activity | largest effect | affords a better mucolytic than mannose (Cmpd 5) or glucose (Cmpd 4) | mucolytic effect at two minutes ([3]; 10 mM, CF sputum n=5 donors, 2 minutes (FIG. 7B)): much larger mucolytic effects than NAC; mucolytic effect at 12 minutes ([3]; 10 mM, CF sputum n=5 donors, 12 minutes (FIG. 7C)): significantly greater than observed for NAC; also recorded: significantly greater than for Cmpd 1; also recorded: much larger mucolytic effects than NAC; also recorded: significantly greater than that of Cmpd 1
N[C@@H](CCC(=O)N[C@@H](CS)C(=O)NCC(=O)O)C(=O)O [GSH, Glutathione] |  | 140 mV | did not have strong reducing properties | ineffective as mucolytics |  | 
OCC1O[C@H](OCCCCCS)C(O)[C@@H](O)[C@@H]1O (stereo partly drawn) [Cmpd 4] |  |  |  |  | a galactose moiety (i.e., Cmpd 2) affords a better mucolytic than mannose (Cmpd 5) or glucose (Cmpd 4) | 
